{
  "source": "the kinase profiling compilation of Christmann-Franck et al. (2016)",
  "assay_in_all_cases": "radiometric filter-binding kinase assay, Kinaseprofiler",
  "key": {"[1]": {"target": "IKBKB (human) (UniProt O14920)", "details": "ATP 10 µM"}, "[2]": {"target": "ULK2 (human) (UniProt Q8IYT8)", "details": "ATP 15 µM"}, "[3]": {"target": "EPHA2 (human) (UniProt P29317)", "details": "ATP 155 µM"}, "[4]": {"target": "MUSK (human) (UniProt O15146)", "details": "ATP 155 µM"}, "[5]": {"target": "GRK6 (human) (UniProt P43250)", "details": "ATP 45 µM"}, "[6]": {"target": "HIPK1 (human) (UniProt Q86Z02)", "details": "ATP 45 µM"}, "[7]": {"target": "MST1R (human) (UniProt Q04912)", "details": "ATP 70 µM"}, "[8]": {"target": "MAPK10 (human) (UniProt P53779)", "details": "ATP 10 µM"}, "[9]": {"target": "STK33 (human) (UniProt Q9BYT3)", "details": "ATP 155 µM"}, "[10]": {"target": "PRKCI (human) (UniProt P41743)", "details": "ATP 155 µM"}, "[11]": {"target": "SRPK2 (human) (UniProt P78362)", "details": "ATP 10 µM"}, "[12]": {"target": "JAK2 JH1 catalytic (human) (UniProt O60674)", "details": "ATP 45 µM"}, "[13]": {"target": "PRKCG (human) (UniProt P05129)", "details": "ATP 15 µM"}, "[14]": {"target": "ULK3 (human) (UniProt Q6PHR2)", "details": "ATP 10 µM"}, "[15]": {"target": "LYN (human) (UniProt P07948)", "details": "ATP 70 µM"}, "[16]": {"target": "FGR (human) (UniProt P09769)", "sequence (P09769 whole entry, looked up)": "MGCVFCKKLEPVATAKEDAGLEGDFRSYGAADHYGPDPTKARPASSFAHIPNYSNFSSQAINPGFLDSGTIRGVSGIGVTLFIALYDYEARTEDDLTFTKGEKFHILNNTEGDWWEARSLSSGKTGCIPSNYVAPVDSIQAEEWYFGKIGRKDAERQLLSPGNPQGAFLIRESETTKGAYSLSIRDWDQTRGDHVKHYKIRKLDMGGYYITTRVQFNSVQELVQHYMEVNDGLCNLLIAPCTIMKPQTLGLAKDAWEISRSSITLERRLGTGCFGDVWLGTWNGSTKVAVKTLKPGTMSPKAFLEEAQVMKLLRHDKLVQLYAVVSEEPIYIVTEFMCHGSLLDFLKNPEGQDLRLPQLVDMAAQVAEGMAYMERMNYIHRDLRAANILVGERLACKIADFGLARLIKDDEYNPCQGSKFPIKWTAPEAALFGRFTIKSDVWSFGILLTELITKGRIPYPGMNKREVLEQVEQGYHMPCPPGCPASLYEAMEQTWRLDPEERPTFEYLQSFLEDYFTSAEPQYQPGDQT", "details": "ATP 45 µM"}, "[17]": {"target": "ABL1 (human) (UniProt P00519)", "details": "ATP 10 µM"}, "[18]": {"test_system": "SGK1 (human), O00141 [S422D]", "sequence (O00141 whole entry S422D, looked up)": "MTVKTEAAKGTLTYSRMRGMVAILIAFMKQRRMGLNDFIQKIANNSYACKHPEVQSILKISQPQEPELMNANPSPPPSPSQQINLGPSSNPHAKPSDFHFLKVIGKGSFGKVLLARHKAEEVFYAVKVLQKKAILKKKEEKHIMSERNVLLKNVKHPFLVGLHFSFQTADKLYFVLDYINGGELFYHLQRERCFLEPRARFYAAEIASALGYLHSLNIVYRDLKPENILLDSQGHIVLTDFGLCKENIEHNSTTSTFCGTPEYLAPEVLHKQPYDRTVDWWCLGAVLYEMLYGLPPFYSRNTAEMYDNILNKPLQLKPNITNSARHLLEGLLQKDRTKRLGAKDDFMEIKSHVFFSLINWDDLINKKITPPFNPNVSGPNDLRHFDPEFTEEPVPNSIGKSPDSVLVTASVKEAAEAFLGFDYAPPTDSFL", "details": "ATP 90 µM"}, "[19]": {"target": "MAPK3 (human) (UniProt P27361)", "sequence (P27361 whole entry, looked up)": "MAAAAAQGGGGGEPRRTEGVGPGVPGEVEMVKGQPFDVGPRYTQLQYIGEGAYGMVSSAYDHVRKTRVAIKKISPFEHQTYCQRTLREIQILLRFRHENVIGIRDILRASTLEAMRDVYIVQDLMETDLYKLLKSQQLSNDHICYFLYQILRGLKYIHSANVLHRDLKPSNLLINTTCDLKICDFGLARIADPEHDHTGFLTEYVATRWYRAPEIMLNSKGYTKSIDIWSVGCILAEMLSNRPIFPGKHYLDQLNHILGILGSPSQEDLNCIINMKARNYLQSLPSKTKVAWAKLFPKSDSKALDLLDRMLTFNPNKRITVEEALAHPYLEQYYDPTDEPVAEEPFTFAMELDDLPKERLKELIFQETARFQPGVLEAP", "details": "ATP 70 µM"}, "[20]": {"target": "CDK2 CCNA2 (human) (UniProt P24941+P20248)", "sequence (P20248 whole entry, looked up, other chains not shown)": "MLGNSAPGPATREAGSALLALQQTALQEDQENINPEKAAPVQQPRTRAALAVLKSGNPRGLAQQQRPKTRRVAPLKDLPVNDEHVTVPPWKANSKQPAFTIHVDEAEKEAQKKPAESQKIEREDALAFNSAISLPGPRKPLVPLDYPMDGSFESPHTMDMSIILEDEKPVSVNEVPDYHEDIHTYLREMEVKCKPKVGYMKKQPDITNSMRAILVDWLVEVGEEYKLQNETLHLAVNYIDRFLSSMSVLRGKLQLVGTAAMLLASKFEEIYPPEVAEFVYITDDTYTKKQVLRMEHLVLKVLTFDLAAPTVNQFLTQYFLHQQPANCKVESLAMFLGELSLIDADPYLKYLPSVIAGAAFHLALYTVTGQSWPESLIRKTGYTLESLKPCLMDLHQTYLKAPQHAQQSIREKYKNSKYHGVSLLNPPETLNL", "details": "ATP 45 µM"}, "[21]": {"target": "STK17A (human) (UniProt Q9UEE5)", "details": "ATP 10 µM"}, "[22]": {"target": "LCK (human) (UniProt P06239)", "sequence (P06239 whole entry, looked up)": "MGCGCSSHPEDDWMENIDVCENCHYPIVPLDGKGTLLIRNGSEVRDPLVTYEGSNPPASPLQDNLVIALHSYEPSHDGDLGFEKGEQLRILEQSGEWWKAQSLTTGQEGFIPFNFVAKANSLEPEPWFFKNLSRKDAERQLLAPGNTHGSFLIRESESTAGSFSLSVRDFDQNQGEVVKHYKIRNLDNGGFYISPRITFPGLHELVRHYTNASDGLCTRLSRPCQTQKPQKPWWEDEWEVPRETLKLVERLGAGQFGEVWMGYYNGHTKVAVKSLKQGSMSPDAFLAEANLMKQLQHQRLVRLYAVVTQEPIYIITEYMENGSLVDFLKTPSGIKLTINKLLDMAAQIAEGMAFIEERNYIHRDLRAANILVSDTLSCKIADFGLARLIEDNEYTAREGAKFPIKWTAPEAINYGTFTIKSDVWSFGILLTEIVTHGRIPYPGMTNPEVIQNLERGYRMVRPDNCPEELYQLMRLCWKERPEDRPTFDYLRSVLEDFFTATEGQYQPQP", "details": "ATP 90 µM"}, "[23]": {"target": "PIM3 (human) (UniProt Q86V86)", "details": "ATP 155 µM"}, "[24]": {"target": "PRKD2 (human) (UniProt Q9BZL6)", "details": "ATP 155 µM"}, "[25]": {"target": "WNK2 (human) (UniProt Q9Y3S1)", "details": "ATP 200 µM"}, "[26]": {"target": "EPHB1 (human) (UniProt P54762)", "sequence (P54762 whole entry, looked up)": "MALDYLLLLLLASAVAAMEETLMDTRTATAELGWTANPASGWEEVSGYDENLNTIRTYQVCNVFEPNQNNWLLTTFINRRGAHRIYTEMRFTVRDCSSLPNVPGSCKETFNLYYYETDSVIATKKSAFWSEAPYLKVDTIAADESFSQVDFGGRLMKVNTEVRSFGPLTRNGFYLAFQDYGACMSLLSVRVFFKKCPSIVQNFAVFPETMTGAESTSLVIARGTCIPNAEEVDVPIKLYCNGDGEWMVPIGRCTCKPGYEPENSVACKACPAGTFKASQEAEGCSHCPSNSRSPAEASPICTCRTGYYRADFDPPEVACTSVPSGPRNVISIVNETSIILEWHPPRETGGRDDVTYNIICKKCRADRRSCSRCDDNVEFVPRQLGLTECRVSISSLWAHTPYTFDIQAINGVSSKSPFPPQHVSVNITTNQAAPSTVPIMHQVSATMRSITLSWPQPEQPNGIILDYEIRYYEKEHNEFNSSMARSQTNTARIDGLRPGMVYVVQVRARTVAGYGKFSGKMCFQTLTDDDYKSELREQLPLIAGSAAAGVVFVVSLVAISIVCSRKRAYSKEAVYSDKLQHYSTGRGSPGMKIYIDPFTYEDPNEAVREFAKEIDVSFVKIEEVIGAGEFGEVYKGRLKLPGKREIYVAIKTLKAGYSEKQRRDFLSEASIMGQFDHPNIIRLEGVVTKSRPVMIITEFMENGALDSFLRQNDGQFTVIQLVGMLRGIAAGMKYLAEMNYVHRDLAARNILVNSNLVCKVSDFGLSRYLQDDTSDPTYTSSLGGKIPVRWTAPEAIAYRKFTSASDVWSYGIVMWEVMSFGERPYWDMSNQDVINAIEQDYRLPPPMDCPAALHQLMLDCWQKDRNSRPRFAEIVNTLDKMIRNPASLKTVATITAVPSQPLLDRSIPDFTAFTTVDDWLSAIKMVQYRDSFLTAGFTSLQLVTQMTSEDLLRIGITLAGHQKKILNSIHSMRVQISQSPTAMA", "details": "ATP 200 µM"}, "[27]": {"target": "EPHB3 (human) (UniProt P54753)", "details": "ATP 90 µM"}, "[28]": {"target": "EPHA8 (human) (UniProt P29322)", "details": "ATP 200 µM"}, "[29]": {"target": "RPS6KA3 KD1 KD2 (human) (UniProt P51812)", "details": "ATP 10 µM"}, "[30]": {"target": "MAP3K5 (human) (UniProt Q99683)", "details": "ATP 200 µM"}, "[31]": {"target": "MINK1 (human) (UniProt Q8N4C8)", "sequence (Q8N4C8 whole entry, looked up)": "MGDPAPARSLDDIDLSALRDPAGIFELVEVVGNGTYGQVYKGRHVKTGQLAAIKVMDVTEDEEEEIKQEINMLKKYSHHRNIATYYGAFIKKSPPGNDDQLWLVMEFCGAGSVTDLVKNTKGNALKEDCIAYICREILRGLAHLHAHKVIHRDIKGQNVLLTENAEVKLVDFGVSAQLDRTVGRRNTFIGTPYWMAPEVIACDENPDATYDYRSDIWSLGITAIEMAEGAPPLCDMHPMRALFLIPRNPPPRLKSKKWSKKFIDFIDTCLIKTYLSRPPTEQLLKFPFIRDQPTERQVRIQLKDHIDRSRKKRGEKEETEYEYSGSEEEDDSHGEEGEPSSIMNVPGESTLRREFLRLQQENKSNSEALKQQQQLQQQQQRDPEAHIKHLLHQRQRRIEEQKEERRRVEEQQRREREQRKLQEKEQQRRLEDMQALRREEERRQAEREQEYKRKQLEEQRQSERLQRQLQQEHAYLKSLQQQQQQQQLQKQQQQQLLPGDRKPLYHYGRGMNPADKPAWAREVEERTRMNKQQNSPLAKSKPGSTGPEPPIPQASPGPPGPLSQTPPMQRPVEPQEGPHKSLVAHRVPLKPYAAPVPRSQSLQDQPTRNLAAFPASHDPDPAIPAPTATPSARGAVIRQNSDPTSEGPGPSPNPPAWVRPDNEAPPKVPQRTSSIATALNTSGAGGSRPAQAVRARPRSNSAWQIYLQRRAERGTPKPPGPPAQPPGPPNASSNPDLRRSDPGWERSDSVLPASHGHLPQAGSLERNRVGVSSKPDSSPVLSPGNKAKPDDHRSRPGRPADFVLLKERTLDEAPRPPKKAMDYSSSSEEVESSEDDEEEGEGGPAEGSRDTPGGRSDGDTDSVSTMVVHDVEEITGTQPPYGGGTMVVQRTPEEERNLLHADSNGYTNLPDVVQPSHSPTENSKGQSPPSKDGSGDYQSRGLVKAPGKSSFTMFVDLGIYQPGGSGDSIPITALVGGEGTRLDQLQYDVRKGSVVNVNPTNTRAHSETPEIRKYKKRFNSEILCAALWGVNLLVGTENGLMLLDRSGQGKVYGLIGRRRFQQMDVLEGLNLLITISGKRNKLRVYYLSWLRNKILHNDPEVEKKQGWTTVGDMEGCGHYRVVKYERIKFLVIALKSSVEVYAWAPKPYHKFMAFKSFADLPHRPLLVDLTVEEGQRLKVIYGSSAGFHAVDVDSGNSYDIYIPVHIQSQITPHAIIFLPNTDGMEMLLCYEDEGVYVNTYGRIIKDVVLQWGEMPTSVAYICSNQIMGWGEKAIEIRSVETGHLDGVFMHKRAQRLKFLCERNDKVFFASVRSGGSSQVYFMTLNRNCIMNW", "details": "ATP 185 µM"}, "[32]": {"target": "MYLK (human) (UniProt Q15746)", "details": "ATP 70 µM"}, "[33]": {"target": "TAOK1 (human) (UniProt Q7L7X3)", "details": "ATP 10 µM"}},
  "note": "Values joined by “and” are separate entries in the source; they are usually repeats but may differ in a detail not shown here. Equal entries are not always repeated.",
  "data": [
    {"smiles": "O=C1Nc2ccccc2/C1=C1\\Nc2ccccc2\\C1=N/O", "values": [
      {"measurement": "residual activity", "setting": "[1]; compound 1.0 µM", "value": 87, "unit": "%"},
      {"measurement": "residual activity", "setting": "[1]; compound 10.0 µM", "value": 67, "unit": "%"},
      {"measurement": "residual activity", "setting": "[2]; compound 1.0 µM", "value": 93, "unit": "%"},
      {"measurement": "residual activity", "setting": "[2]; compound 10.0 µM", "value": 59, "unit": "%"},
      {"measurement": "residual activity", "setting": "[3]; compound 1.0 µM", "value": 61, "unit": "%"},
      {"measurement": "residual activity", "setting": "[3]; compound 10.0 µM", "value": 16, "unit": "%"},
      {"measurement": "residual activity", "setting": "[4]; compound 1.0 µM", "value": 58, "unit": "%"},
      {"measurement": "residual activity", "setting": "[4]; compound 10.0 µM", "value": 5, "unit": "%"},
      {"measurement": "residual activity", "setting": "[5]; compound 1.0 µM", "value": 81, "unit": "%"},
      {"measurement": "residual activity", "setting": "[5]; compound 10.0 µM", "value": 80, "unit": "%"},
      {"measurement": "residual activity", "setting": "[6]; compound 1.0 µM", "value": 90, "unit": "%"},
      {"measurement": "residual activity", "setting": "[6]; compound 10.0 µM", "value": 73, "unit": "%"},
      {"measurement": "residual activity", "setting": "[7]; compound 1.0 µM", "value": 86, "unit": "%"},
      {"measurement": "residual activity", "setting": "[7]; compound 10.0 µM", "value": 71, "unit": "%"},
      {"measurement": "residual activity", "setting": "[8]; compound 1.0 µM", "value": 7, "unit": "%"},
      {"measurement": "residual activity", "setting": "[8]; compound 10.0 µM", "value": -2, "unit": "%"},
      {"measurement": "residual activity", "setting": "[9]; compound 1.0 µM", "value": 43, "unit": "%"},
      {"measurement": "residual activity", "setting": "[9]; compound 10.0 µM", "value": 8, "unit": "%"},
      {"measurement": "residual activity", "setting": "[10]; compound 1.0 µM", "value": 96, "unit": "%"},
      {"measurement": "residual activity", "setting": "[10]; compound 10.0 µM", "value": 105, "unit": "%"},
      {"measurement": "residual activity", "setting": "[11]; compound 1.0 µM", "value": 96, "unit": "%"},
      {"measurement": "residual activity", "setting": "[11]; compound 10.0 µM", "value": 67, "unit": "%"},
      {"measurement": "residual activity", "setting": "[12]; compound 1.0 µM", "value": 92, "unit": "%"},
      {"measurement": "residual activity", "setting": "[12]; compound 10.0 µM", "value": 11, "unit": "%"},
      {"measurement": "residual activity", "setting": "[13]; compound 1.0 µM", "value": 92, "unit": "%"},
      {"measurement": "residual activity", "setting": "[13]; compound 10.0 µM", "value": 73, "unit": "%"},
      {"measurement": "residual activity", "setting": "[14]; compound 1.0 µM", "value": 55, "unit": "%"},
      {"measurement": "residual activity", "setting": "[14]; compound 10.0 µM", "value": 12, "unit": "%"},
      {"measurement": "residual activity", "setting": "[15]; compound 1.0 µM", "value": 8, "unit": "%"},
      {"measurement": "residual activity", "setting": "[15]; compound 10.0 µM", "value": 2, "unit": "%"},
      {"measurement": "residual activity", "setting": "[16]; compound 1.0 µM", "value": 8, "unit": "%"},
      {"measurement": "residual activity", "setting": "[16]; compound 10.0 µM", "value": 1, "unit": "%"},
      {"measurement": "residual activity", "setting": "[17]; compound 1.0 µM", "value": 49, "unit": "%"},
      {"measurement": "residual activity", "setting": "[17]; compound 10.0 µM", "value": 16, "unit": "%"},
      {"measurement": "residual activity", "setting": "[18]; compound 1.0 µM", "value": 59, "unit": "%"},
      {"measurement": "residual activity", "setting": "[18]; compound 10.0 µM", "value": 28, "unit": "%"},
      {"measurement": "residual activity", "setting": "[19]; compound 1.0 µM", "value": 114, "unit": "%"},
      {"measurement": "residual activity", "setting": "[19]; compound 10.0 µM", "value": 101, "unit": "%"},
      {"measurement": "residual activity", "setting": "[20]; compound 1.0 µM", "value": 19, "unit": "%"},
      {"measurement": "residual activity", "setting": "[20]; compound 10.0 µM", "value": 5, "unit": "%"},
      {"measurement": "residual activity", "setting": "[21]; compound 1.0 µM", "value": 6, "unit": "%"},
      {"measurement": "residual activity", "setting": "[21]; compound 10.0 µM", "value": 4, "unit": "%"},
      {"measurement": "residual activity", "setting": "[22]; compound 1.0 µM", "value": "13% and 22%"},
      {"measurement": "residual activity", "setting": "[22]; compound 10.0 µM", "value": "6% and 17%"},
      {"measurement": "residual activity", "setting": "[23]; compound 1.0 µM", "value": 94, "unit": "%"},
      {"measurement": "residual activity", "setting": "[23]; compound 10.0 µM", "value": 90, "unit": "%"},
      {"measurement": "residual activity", "setting": "[24]; compound 1.0 µM", "value": 109, "unit": "%"},
      {"measurement": "residual activity", "setting": "[24]; compound 10.0 µM", "value": 98, "unit": "%"},
      {"measurement": "residual activity", "setting": "[25]; compound 1.0 µM", "value": 90, "unit": "%"},
      {"measurement": "residual activity", "setting": "[25]; compound 10.0 µM", "value": 55, "unit": "%"},
      {"measurement": "residual activity", "setting": "[26]; compound 1.0 µM", "value": 59, "unit": "%"},
      {"measurement": "residual activity", "setting": "[26]; compound 10.0 µM", "value": 13, "unit": "%"},
      {"measurement": "residual activity", "setting": "[27]; compound 1.0 µM", "value": 105, "unit": "%"},
      {"measurement": "residual activity", "setting": "[27]; compound 10.0 µM", "value": 103, "unit": "%"},
      {"measurement": "residual activity", "setting": "[28]; compound 1.0 µM", "value": 84, "unit": "%"},
      {"measurement": "residual activity", "setting": "[28]; compound 10.0 µM", "value": 43, "unit": "%"},
      {"measurement": "residual activity", "setting": "[29]; compound 1.0 µM", "value": 50, "unit": "%"},
      {"measurement": "residual activity", "setting": "[29]; compound 10.0 µM", "value": 7, "unit": "%"},
      {"measurement": "residual activity", "setting": "[30]; compound 1.0 µM", "value": 52, "unit": "%"},
      {"measurement": "residual activity", "setting": "[30]; compound 10.0 µM", "value": 7, "unit": "%"},
      {"measurement": "residual activity", "setting": "[31]; compound 1.0 µM", "value": 54, "unit": "%"},
      {"measurement": "residual activity", "setting": "[31]; compound 10.0 µM", "value": 10, "unit": "%"},
      {"measurement": "residual activity", "setting": "[32]; compound 1.0 µM", "value": 46, "unit": "%"},
      {"measurement": "residual activity", "setting": "[32]; compound 10.0 µM", "value": 13, "unit": "%"},
      {"measurement": "residual activity", "setting": "[33]; compound 1.0 µM", "value": 83, "unit": "%"},
      {"measurement": "residual activity", "setting": "[33]; compound 10.0 µM", "value": 39, "unit": "%"}
    ]}
  ]
}
